Experimental data taken from patent US20210187046A1, “COCKTAIL COMPOSITIONS COMPRISING RESPIRATORY ANTIBACTERIAL PHAGES AND METHODS OF USE THEREOF” (priority 2019, published 2021).
Converted amounts (≈) assume the structure as drawn. Where two headings read alike, the source gives them in different places.

Columns and labels:
[1] = system: P. aeruginosa PSA_1992/05; assay: Broth microdilution MIC with and without bacteriophage cocktail; format: cell-based, Pseudomonas aeruginosa
Experimental: The method was developed and optimized as a proof of concept for P. aeruginosa using a single strain infected by all three phages (PSA_1992/05; NCIMB deposit 42914)). […] Different time points (4 h, 6 h, 12 h and 18 h) were used for optimization of the technique, but final readings were determined at 18 h. All experiments were conducted in duplicates. The study was optimized for the individual bacteriophages and a final assay is presented here containing data for the complete cocktail.

[2] = system: K. pneumoniae bacterial isolates (n=36); assay: Antibiotic susceptibility testing by disk diffusion; format: cell-based, Klebsiella pneumoniae; settings: EUCAST cut-off values
Experimental: A selected group of K. pneumoniae bacterial isolates were collected between 2005 and 2019 (n=36), in at least 7 different health care facilities. Overall, these isolates were collected from hospital settings (n=25), outpatients (n=9), or from unknown origin (n=2), and from a diversity of biological products [urine (n=10), respiratory secretions (n=5), unknown (n=8), abdominal fluids (n=5) and others (n=8)]. This panel was evaluated with regards to antibiotic susceptibility testing by disk diffusion method against a selected panel of clinically important antibiotics (β-lactam antibiotics—ampicillin, ceftazidime, piperacillin with tazobactam, and meropenem; fluoroquinolones—ciprofloxacin; aminoglycosides—gentamicin; and sulphonamides—trimethoprim with sulfamethoxazole). Interpretation of results was performed according to the cut-off values recommended by the European Committee on Antimicrobial Susceptibility Testing (EUCAST, http://mic.eucast.org/Eucast2/). Isolates were considered multidrug resistant (MDR) when presenting non-susceptibility to three or more structurally unrelated classes of antibiotics (Magiorakos A P, Srinivasan A, Carey R B., Carmeli Y, Falagas M E, et al. 2011. Clin Microbiol Infect 2012; 18: 268-281).

[3] = in the presence of bacteriophage cocktail TP-122A at MOI 0.1, 18 h
[4] = in the presence of bacteriophage cocktail TP-122A at MOI 1, 18 h
[5] = in the presence of bacteriophage cocktail TP-122A at MOI 10, 18 h
[6] = Pseudomonas aeruginosa, No Phage, reading at 18 h, read-out: MIC

Row | Molecule | MIC ([1]; No Phage, reading at 18 h) | MIC [1, 3] [µg/mL] | MIC [1, 4] [µg/mL] | MIC [1, 5] [µg/mL] | isolates non-susceptible [2] [%] | MIC [1, 6] [µg/mL] | MIC ([1]; Pseudomonas aeruginosa, 18 h) [µg/mL]
1 | piperacillin with tazobactam [TZP] | 1 µg/mL | ≤0.016 | ≤0.016 | ≤0.016 | 97.2 |  | 
2 | CC1(C)S[C@@H]2[C@H](NC(=O)[C@H](N)c3ccccc3)C(=O)N2[C@H]1C(=O)O [ampicillin] |  |  |  |  | 100 |  | 
3 | colistin [CS] | 0.25 µg/mL | ≤0.016 | ≤0.016 | ≤0.016 |  |  | 
4 | CC(C)(O/N=C(\C(=O)N[C@@H]1C(=O)N2C(C(=O)[O-])=C(C[n+]3ccccc3)CS[C@H]12)c1csc(N)n1)C(=O)O [C/ZD, ceftazidime] | .5 µg/mL (≈ 0.915 µM) | ≤0.016 | ≤0.016 | ≤0.016 | 86.1 |  | 
5 | CC(=O)NC[C@H]1CN(c2ccc(N3CCOCC3)c(F)c2)C(=O)O1 [LZD, linezolid] |  | ≤0.016 | ≤0.016 | ≤0.016 |  | > 32 | 
6 | CN[C@H](CC(C)C)C(=O)N[C@H]1C(=O)N[C@@H](CC(N)=O)C(=O)N[C@H]2C(=O)N[C@H]3C(=O)N[C@H](C(=O)N[C@H](C(=O)O)c4cc(O)cc(O)c4-c4cc3ccc4O)[C@H](O)c3ccc(c(Cl)c3)Oc3cc2cc(c3O[C@@H]2O[C@H](CO)[C@@H](O)[C@H](O)[C@H]2O[C@H]2C[C@](C)(N)[C@H](O)[C@H](C)O2)Oc2ccc(cc2Cl)[C@H]1O [VA, vancomycin] |  | ≤0.016 | ≤0.016 | ≤0.016 |  |  | > 32
7 | trimethoprim with sulfamethoxazole |  |  |  |  | 88.9 |  | 
8 | O=C(O)c1cn(C2CC2)c2cc(N3CCNCC3)c(F)cc2c1=O [ciprofloxacin] |  |  |  |  | 91.7 |  | 
9 | C[C@@H](O)[C@H]1C(=O)N2C(C(=O)O)=C(S[C@@H]3CN[C@H](C(=O)N(C)C)C3)[C@H](C)[C@H]12 [MEM, meropenem] |  | ≤0.016 | ≤0.016 | ≤0.016 | 77.8 | 0.25 (≈ 0.652 µM) | 
10 | NCC[C@H](O)C(=O)N[C@@H]1C[C@H](N)[C@@H](O[C@H]2O[C@H](CN)[C@@H](O)[C@H](O)[C@H]2O)[C@H](O)[C@H]1O[C@H]1O[C@H](CO)[C@@H](O)[C@H](N)[C@H]1O [AK, amikacin] |  | ≤0.016 | ≤0.016 | ≤0.016 |  | 0.5 (≈ 0.854 µM) | 
11 | gentamicin |  |  |  |  | 72.2 |  | 
